Literature values, collected in patent publication US20250129429A1, “GENE FUSIONS IN SARCOMA” (Foundation Medicine, Inc., priority 2021, published 2025).
Each block holds one compound with its values, some of them ahead of it.

Columns and labels:
[1] = molecular target: TrkB (Homo sapiens, UniProt Q16620)
[2] = molecular target: NGF dimer (Homo sapiens, UniProt P01138); conditions: binds the NGF dimer
[3] = test system: NTRK1 fusion-positive tumors; conditions: patients with NTRK1 fusion-positive tumors
[4] = test system: various solid tumors with NTRK fusions; conditions: monotherapy; adult and pediatric patients, with and without CNS metastases
[5] = test system: NTRK fusion-positive AML cell lines
[6] = molecular target: TrkA (Homo sapiens, UniProt P04629)
Sequence of TrkA (P04629 33-796): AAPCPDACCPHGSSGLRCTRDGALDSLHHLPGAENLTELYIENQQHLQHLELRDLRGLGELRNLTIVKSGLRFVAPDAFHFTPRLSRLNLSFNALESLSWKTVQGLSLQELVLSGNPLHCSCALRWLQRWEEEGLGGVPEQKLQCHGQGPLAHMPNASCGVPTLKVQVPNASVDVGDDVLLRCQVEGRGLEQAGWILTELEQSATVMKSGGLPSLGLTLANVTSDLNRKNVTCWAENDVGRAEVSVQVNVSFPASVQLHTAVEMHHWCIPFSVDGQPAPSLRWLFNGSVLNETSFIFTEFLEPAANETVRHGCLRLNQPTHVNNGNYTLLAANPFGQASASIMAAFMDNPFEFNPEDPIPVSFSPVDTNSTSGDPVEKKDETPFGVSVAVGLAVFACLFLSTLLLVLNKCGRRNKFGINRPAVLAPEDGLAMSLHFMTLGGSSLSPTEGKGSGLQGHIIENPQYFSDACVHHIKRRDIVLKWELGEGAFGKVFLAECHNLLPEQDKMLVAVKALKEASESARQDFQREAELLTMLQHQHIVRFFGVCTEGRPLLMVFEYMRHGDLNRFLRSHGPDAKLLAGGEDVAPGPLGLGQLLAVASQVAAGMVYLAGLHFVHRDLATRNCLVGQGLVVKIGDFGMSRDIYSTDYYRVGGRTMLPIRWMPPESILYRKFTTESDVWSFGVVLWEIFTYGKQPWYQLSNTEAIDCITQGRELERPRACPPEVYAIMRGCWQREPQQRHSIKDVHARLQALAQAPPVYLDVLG

[7] = test system: various solid tumors harboring NTRK fusions

Sequence of NGF dimer (P01138 122-241): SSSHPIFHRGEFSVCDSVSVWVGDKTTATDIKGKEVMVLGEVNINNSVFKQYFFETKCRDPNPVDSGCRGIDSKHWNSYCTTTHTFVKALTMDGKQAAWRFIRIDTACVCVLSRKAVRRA
Sequence of TrkB (Q16620 32-822, species assumed): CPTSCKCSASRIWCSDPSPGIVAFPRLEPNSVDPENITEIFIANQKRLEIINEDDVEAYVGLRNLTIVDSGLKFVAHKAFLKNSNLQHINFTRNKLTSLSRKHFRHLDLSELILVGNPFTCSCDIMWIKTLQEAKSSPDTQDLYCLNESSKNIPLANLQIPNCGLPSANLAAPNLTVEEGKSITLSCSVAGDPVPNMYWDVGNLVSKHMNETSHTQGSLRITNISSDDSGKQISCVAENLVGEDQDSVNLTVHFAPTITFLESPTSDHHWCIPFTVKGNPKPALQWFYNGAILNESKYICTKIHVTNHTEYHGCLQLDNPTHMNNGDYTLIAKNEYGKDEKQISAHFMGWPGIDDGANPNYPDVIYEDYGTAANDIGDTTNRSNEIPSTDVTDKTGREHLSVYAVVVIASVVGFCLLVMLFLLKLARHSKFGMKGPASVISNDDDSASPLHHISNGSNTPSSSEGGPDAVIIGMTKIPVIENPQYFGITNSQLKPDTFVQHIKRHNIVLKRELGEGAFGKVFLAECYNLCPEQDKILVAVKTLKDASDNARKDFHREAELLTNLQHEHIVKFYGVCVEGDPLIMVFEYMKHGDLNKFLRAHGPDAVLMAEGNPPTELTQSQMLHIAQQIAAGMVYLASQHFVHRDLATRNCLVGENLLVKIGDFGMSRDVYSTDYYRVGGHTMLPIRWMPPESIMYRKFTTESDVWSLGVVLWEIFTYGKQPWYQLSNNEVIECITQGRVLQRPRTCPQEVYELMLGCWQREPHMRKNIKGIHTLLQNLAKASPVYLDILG

SMILES: CC(C)Oc1cc(Nc2nc(N[C@@H](C)c3ccc(F)cn3)ncc2Cl)n[nH]1 [AZ-23, 5-chloro-N-[(1S)-1-(5-fluoropyridin-2-yl)ethyl]-N′-(5-propan-2-yloxy-1H-pyrazol-3-yl)pyrimidine-2,4-diamine]
IC50 [1]: 8 nM

Kd [2]: ~1000 nM
SMILES: Cc1cc2nc3c(=O)[nH]c(=O)nc-3n(C)c2cc1C=O [Ro 08-2750]

SMILES: C[C@@H](Oc1cc(-c2cnn(C3CCNCC3)c2)cnc1N)c1c(Cl)ccc(F)c1Cl [crizotinib]
clinical responses [3]: Durable clinical responses

SMILES: CN1CCN(c2ccc(C(=O)Nc3n[nH]c4ccc(Cc5cc(F)cc(F)c5)cc34)c(NC3CCOCC3)c2)CC1 [entrectinib, N-[5-(3,5-Difluorobenzyl)-1H-indazol-3-yl]-4-(4-methyl-1-piperazinyl)-2-(tetrahydro-2H-pyran-4-ylamino)benzamide]
clinical benefit [4]: Clinical benefit with entrectinib monotherapy has been achieved
preclinical sensitivity [5]: preclinical sensitivity has been observed

IC50 [6]: < 1 nM
SMILES: NC(=O)Nc1snc(S[C@@H]2CCCCc3ccccc32)c1C(N)=O [isothiazole 5n]

SMILES: O=C(Nc1cnn2ccc(N3CCC[C@@H]3c3cc(F)ccc3F)nc12)N1CC[C@H](O)C1 [larotrectinib]
CR ([7]; adult and pediatric patients with solid tumors harboring NTRK fusions): 17 % of patients
ORR ([7]; adult and pediatric patients with various solid tumors harboring NTRK fusions (88/109)): 81%
responses ongoing ([7]; at 12 months of treatment): 75-81 % of patients
intracranial efficacy ([7]; individuals with NTRK fusion-positive gliomas or brain metastases): has been demonstrated

IC50 [6]: 6 nM
SMILES: c1ccc2c(c1)[nH]c1c3cccnc3ccc21 [pyridocarbazole]
